In brackets after ≈: the same amount, converted by molar mass. Starred links: 1 amine or outer side, 2 acyl side, 3 side chain; linkers in the order of their positions; H or OH if unused. Positions of bridges follow the written chain, without caps; N, C: chain ends. Non-standard residues stand in square brackets, D forms with d. Residues, ends and D or L forms follow the SMILES beside them. *: point of attachment. hTyr(3S-OH,4S-OH,3'-OSO3H) = N[C@H](C(=O)O)[C@H](O)[C@@H](O)c1ccc(O)c(OS(=O)(=O)O)c1; Orn(4R-OH,5R-OH) = O=C([C@H](C[C@@H](O)[C@@H](O)N[*:3])N[*:1])[*:2]; Pro(3S-OH,4S-Me) = C[C@H]1CN[C@H](C(=O)O)[C@H]1O; X1 = CCCCCOc1ccc(-c2cc(-c3ccc(C(=O)*)cc3)no2)cc1; Gln(3R-OH) = NC(=O)C[C@@H](O)[C@H](N)C(=O)O; Hyp = O=C(O)[C@@H]1C[C@@H](O)CN1
Key:
[1] = tested on: Candida albicans; assay: Antifungal activity against Candida albicans; format: functional
[2] = Ratio of AUC in neonates with Candida albican infection to MIC for Candida albicans; format: functional
[3] = AUC (0 to 24 hrs) in candidiasis patient at 8 mg/kg, iv by HPLC; format: ADME, organism-based; set-up: time < 24 hr, dose 8 mg/kg, route intravenous; settings: human, plasma
[4] = AUC (0 to 24 hrs) in candidiasis patient at 10 mg/kg, iv by HPLC; format: ADME, organism-based; set-up: time < 24 hr, dose 10 mg/kg, route intravenous; settings: human, plasma
[5] = AUC (0 to 24 hrs) in candidiasis patient at 12 mg/kg, iv by HPLC; format: ADME, organism-based; set-up: time < 24 hr, dose 12 mg/kg, route intravenous; settings: human, plasma
[6] = Volume of distribution in iv dosed adult human by HPLC; format: ADME, organism-based; settings: in vivo
[7] = Volume of distribution in iv dosed human infant by HPLC; format: ADME, organism-based; settings: in vivo
[8] = Dose normalized clearance in iv dosed adult human by HPLC; format: ADME, organism-based; settings: in vivo

## CCCCCOc1ccc(-c2cc(-c3ccc(C(=O)N[C@H]4C[C@@H](O)[C@@H](O)NC(=O)[C@@H]5[C@@H](O)[C@@H](C)CN5C(=O)[C@H]([C@H](O)CC(N)=O)NC(=O)[C@H]([C@H](O)[C@@H](O)c5ccc(O)c(OS(=O)(=O)O)c5)NC(=O)[C@@H]5C[C@@H](O)CN5C(=O)[C@H]([C@@H](C)O)NC4=O)cc3)no2)cc1 [MICAFUNGIN] (X1-[Orn(4R-OH,5R-OH)]T[Hyp][hTyr(3S-OH,4S-OH,3'-OSO3H)][Gln(3R-OH)][Pro(3S-OH,4S-Me)]; lactam 1-C)
[1]
  MIC: 0.125 µg/mL (≈ 0.0984 µM)
[2]
  Ratio: 1330
[3]
  AUC(0-t) at 24 h: < 166 µg·h/mL
[4]
  AUC(0-t) at 24 h: < 166 µg·h/mL
[5]
  AUC(0-t) at 24 h: < 166 µg·h/mL
[6]
  Vd: 10.4 L
[7]
  Vd: 10.3 L
[8]
  clearance: 19.5 mL/min

Source: ChEMBL document CHEMBL1255472, “Population pharmacokinetics of micafungin in neonates and young infants” (Antimicrob Agents Chemother, 2010)
